Measurements taken from US5140018A, “1,3,2-benzodithiazole-1-oxide compounds” (Abbott Laboratories, priority 1991, dated 1992).
In brackets after ≈: the same amount, converted by molar mass. Read-outs that look alike come from different tables or passages of the source.

Legend:
[1] = test system: Cryptococcus albidus ATCC 34140; test: In vitro antifungal MIC, Cryptococcus albidus ATCC 34140; type: cell-based; conditions: Naganishia albida
Method: (§1) The in vitro antifungal activity of the compounds of the present invention against a variety of fungiwas determined as follow: Test medium was prepared by dissolving first 5 g of dextrose and then 6.7 g of Bacto Yeast Nitrogen Base® (commercially available from Difco Laboratories) in 100 mL of distilled water. The solution was filter-sterilized and diluted 1:10 with 0.01M pH 8.0 phosphate buffer solution, and the final pH of the medium adjusted to about pH 7.0 when necessary with either 0.1N hydrochloric acid solution of 0.1N sodium hydroxide solution. […] These concentrated stock solutions were diluted to a concentration of 200 μg/mL (twice the highest concentration desired for testing) with the test medium. Amphotericin B, similarly prepared, was used as a reference antifungal agent.
(§2) The test organisms were then inoculated into test tubes containing approximately 3 to 10 mL of test medium and the test tubes incubated overnight at 37° C. A sample of each overnight culture was placed in a test tube and diluted using the test medium until a reading of 95% transmittance was obtained in a conventional UV/visible spectrophotometer set to 560 nm. The adjusted cultures were then diluted 1:50 with test medium. These diluted cultures served as the inocula for the assays which follow and were used within 15 minutes of preparation.
(§3) Next, 2-fold serial dilutions of each test compound in test medium were prepared in a 96-well microtiter plate using calibrated microdiluters attached to an automatic (hand-held) diluter (available from Dynatech Laboratories).
(§4) Using sterile calibrated droppers or a multi-point dispenser, the diluted inoculum suspension was added to each of the wells in the plate. When inoculation was complete, the microtiter tray was covered with a plastic plate sealer to minimize evaporation. After the plate had been sealed, a hole was made above each well with a sterile 26-gauge syringe needle in order to allow gas exchange. If plate sealers were not available, the microtiter trays were stacked in groups of five or less with an empty tray on top. The microtiter trays were then incubated in a humidified chamber at 35°-37° C. for 48 hours or until growth was visible in the growth control wells.
(§5) The minimum inhibitory concentration (MIC) was defined as the lowest concentration of test compound yielding no growth, a slight haze or sparsely isolated colonies on the inoculum spot as compared to the growth control containing no test compound.

[2] = test system: Candida tropicalis NRRL-Y-112; test: In vitro antifungal MIC, Candida tropicalis NRRL-Y-112; type: cell-based
Method: as §1, §2, §3, §4, §5

Candida kefyr ATCC 28838 = test: In vitro antifungal MIC, Candida kefyr ATCC 28838; type: cell-based; conditions: Kluyveromyces marxianus
Method: as §1, §2, §3, §4, §5

Candida albicans 579A = test: In vitro antifungal MIC, Candida albicans 579A; type: cell-based
Method: as §1, §2, §3, §4, §5

Candida albicans CCH 442 = test: In vitro antifungal MIC, Candida albicans CCH 442; type: cell-based
Method: as §1, §2, §3, §4, §5

[3] = test system: Candida albicans ATCC 38247; test: In vitro antifungal MIC, Candida albicans ATCC 38247; type: cell-based
Method: as §1, §2, §3, §4, §5

[4] = in vivo, cited from earlier work
kidney function = conditions: patients treated with amphotericin B; cited from earlier work
[5] = in vivo; cited from earlier work
[6] = test system: Aspergillus niger ATCC 16404; test: In vitro antifungal MIC, Aspergillus niger ATCC 16404; type: cell-based
Method: as §1, §2, §3, §4, §5

[7] = test system: Candida albicans ATCC 10231; test: In vitro antifungal MIC, Candida albicans ATCC 10231; type: cell-based
Method: as §1, §2, §3, §4, §5

[8] = test system: Candida albicans ATCC 62376; test: In vitro antifungal MIC, Candida albicans ATCC 62376; type: cell-based
Method: as §1, §2, §3, §4, §5

[9] = test system: Torulopsis glabrata ATCC 15545; test: In vitro antifungal MIC, Torulopsis glabrata ATCC 15545; type: cell-based; conditions: Nakaseomyces glabratus
Method: as §1, §2, §3, §4, §5

fungi = conditions: cited from earlier work
[10] = test system: biosynthesis of testosterone; conditions: cited from earlier work
[11] = ATCC34140, Cryptococcus albidus ATCC 34140, 35°-37° C., 48 hours, read-out: MIC
[12] = NRRLY112, Candida tropicalis NRRL-Y-112, 35°-37° C., 48 hours, read-out: MIC
[13] = ATCC28838, Candida kefyr ATCC 28838, 35°-37° C., 48 hours, read-out: MIC
[14] = Candida albicans 579A, 35°-37° C., 48 hours, read-out: MIC
[15] = CCH442, Candida albicans CCH 442, 35°-37° C., 48 hours, read-out: MIC
[16] = ATCC38247, Candida albicans ATCC 38247, 35°-37° C., 48 hours, read-out: MIC
[17] = ATCC16404, Aspergillus niger ATCC 16404, 35°-37° C., 48 hours, read-out: MIC
[18] = ATCC10231, Candida albicans ATCC 10231, 35°-37° C., 48 hours, read-out: MIC
[19] = ATCC62376, Candida albicans ATCC 62376, 35°-37° C., 48 hours, read-out: MIC
[20] = ATCC15545, Torulopsis glabrata ATCC 15545, 35°-37° C., 48 hours, read-out: MIC

SMILES | MIC [1, 11] | MIC [2, 12] | MIC (Candida kefyr ATCC 28838; [13]) | MIC (Candida albicans 579A; [14]) | MIC (Candida albicans CCH 442; [15]) | MIC [3, 16] | MIC [6, 17] | MIC [7, 18] | MIC [8, 19] | MIC [9, 20] | also measured
C[C@@H]1[C@H](O)[C@@H](C)/C=C/C=C/C=C/C=C/C=C/C=C/C=C/[C@H](O[C@@H]2O[C@H](C)[C@@H](O)[C@H](N)[C@@H]2O)C[C@@H]2O[C@](O)(C[C@@H](O)C[C@@H](O)[C@H](O)CC[C@@H](O)C[C@@H](O)CC(=O)O[C@H]1C)C[C@H](O)[C@H]2C(=O)O [Amphotericin B, reference compound] | – | – | – | – | – | – | – | – | – | – | MIC ([1]; ATCC34140, 48 h): 3.12 µg/mL (≈ 3.38 µM); MIC ([2]; Candida tropicalis, NRRLY112, 48 h): 1.56 µg/mL (≈ 1.69 µM); MIC (Candida kefyr ATCC 28838; ATCC28838, 48 h): 1.56 µg/mL (≈ 1.69 µM); MIC (Candida albicans 579A; Candida albicans, 579A, 48 h): 1.56 µg/mL (≈ 1.69 µM); MIC (Candida albicans CCH 442; Candida albicans, CCH442, 48 h): 1.56 µg/mL (≈ 1.69 µM); MIC ([3]; Candida albicans, ATCC38247, 48 h): 12.5 µg/mL (≈ 13.5 µM); oral bioavailability ([4]; po): poor; patients experiencing impaired kidney function (kidney function): 80%; mammalian toxicity [5]: considerable; untoward effects [5]: anaphylaxis, thrombocytopenia, flushing, generalized pain, convulsions, chills, fever, phlebitis, headache, anemia, anorexia and decreased kidney function; MIC ([6]; Aspergillus niger, ATCC16404, 48 h): 3.12 µg/mL (≈ 3.38 µM); MIC ([7]; Candida albicans, ATCC10231, 48 h): 1.56 µg/mL (≈ 1.69 µM); MIC ([8]; Candida albicans, ATCC62376, 48 h): 1.56 µg/mL (≈ 1.69 µM); MIC ([9]; ATCC15545, 48 h): 3.12 µg/mL (≈ 3.38 µM); fungistatic/fungicidal action (fungi): fungicidal
[O-][S+]1c2ccccc2SN1C1CCCCCCC1 (centres unmarked) [Example 28, 2-cyclooctyl-1,3,2-benzodithiazole-1-oxide] | 12.5 µg/mL (≈ 44.4 µM) | 3.12 µg/mL (≈ 11.1 µM) | 0.39 µg/mL (≈ 1.39 µM) | 3.12 µg/mL (≈ 11.1 µM) | 3.12 µg/mL (≈ 11.1 µM) | 6.25 µg/mL (≈ 22.2 µM) | 0.78 µg/mL (≈ 2.77 µM) | 3.12 µg/mL (≈ 11.1 µM) | 3.12 µg/mL (≈ 11.1 µM) | 3.12 µg/mL (≈ 11.1 µM) | –
[O-][S+]1c2ccccc2SN1C1C2CC3CC(C2)CC1C3 (centres unmarked) [Example 29, 2-(2-adamantyl)-1,3,2-benzodithiazole-1-oxide] | 25 µg/mL (≈ 81.8 µM) | 12.5 µg/mL (≈ 40.9 µM) | 3.12 µg/mL (≈ 10.2 µM) | 12.5 µg/mL (≈ 40.9 µM) | 25 µg/mL (≈ 81.8 µM) | 50 µg/mL (≈ 164 µM) | 3.12 µg/mL (≈ 10.2 µM) | 6.25 µg/mL (≈ 20.5 µM) | 6.25 µg/mL (≈ 20.5 µM) | 12.5 µg/mL (≈ 40.9 µM) | –
[O-][S+]1c2ccccc2SN1c1ccccc1 (centres unmarked) [Example 30, 2-phenyl-1,3,2-benzodithiazole-1-oxide] | 25 µg/mL (≈ 101 µM) | 25 µg/mL (≈ 101 µM) | 12.5 µg/mL (≈ 50.5 µM) | 12.5 µg/mL (≈ 50.5 µM) | 25 µg/mL (≈ 101 µM) | 25 µg/mL (≈ 101 µM) | 12.5 µg/mL (≈ 50.5 µM) | 25 µg/mL (≈ 101 µM) | 25 µg/mL (≈ 101 µM) | 25 µg/mL (≈ 101 µM) | –
[O-][S+]1c2ccccc2SN1c1ccc2c(c1)OCO2 (centres unmarked) [Example 31] | 50 µg/mL (≈ 172 µM) | 50 µg/mL (≈ 172 µM) | 12.5 µg/mL (≈ 42.9 µM) | 25 µg/mL (≈ 85.8 µM) | 25 µg/mL (≈ 85.8 µM) | 25 µg/mL (≈ 85.8 µM) | 12.5 µg/mL (≈ 42.9 µM) | 12.5 µg/mL (≈ 42.9 µM) | 25 µg/mL (≈ 85.8 µM) | 12.5 µg/mL (≈ 42.9 µM) | –
[O-][S+]1c2ccccc2SN1Cc1cccs1 (centres unmarked) [Example 34, 2-(2-thienyl)methyl-1,3,2-benzodithiazole-1-oxide] | 6.25 µg/mL (≈ 23.4 µM) | 50 µg/mL (≈ 187 µM) | 0.78 µg/mL (≈ 2.92 µM) | 0.78 µg/mL (≈ 2.92 µM) | 0.78 µg/mL (≈ 2.92 µM) | 1.56 µg/mL (≈ 5.83 µM) | 0.39 µg/mL (≈ 1.46 µM) | 1.56 µg/mL (≈ 5.83 µM) | 0.78 µg/mL (≈ 2.92 µM) | 50 µg/mL (≈ 187 µM) | –
[O-][S+]1c2ccccc2SN1Cc1ccccc1 (centres unmarked) [Example 35, 2-benzyl-1,3,2-benzodithiazole-1-oxide] | 6.25 µg/mL (≈ 23.9 µM) | 1.56 µg/mL (≈ 5.97 µM) | 0.39 µg/mL (≈ 1.49 µM) | 0.78 µg/mL (≈ 2.98 µM) | 0.78 µg/mL (≈ 2.98 µM) | 6.25 µg/mL (≈ 23.9 µM) | 0.39 µg/mL (≈ 1.49 µM) | 0.78 µg/mL (≈ 2.98 µM) | 0.78 µg/mL (≈ 2.98 µM) | 1.56 µg/mL (≈ 5.97 µM) | –
[O-][S+]1c2ccccc2SN1Cc1ccc(Cl)cc1Cl (centres unmarked) [Example 36, 2-(2,4-dichlorophenyl)methyl-1,3,2-benzodithiazole-1-oxide] | 25 µg/mL (≈ 75.7 µM) | 3.12 µg/mL (≈ 9.45 µM) | 0.78 µg/mL (≈ 2.36 µM) | 1.56 µg/mL (≈ 4.72 µM) | 6.25 µg/mL (≈ 18.9 µM) | 12.5 µg/mL (≈ 37.8 µM) | 3.12 µg/mL (≈ 9.45 µM) | 3.12 µg/mL (≈ 9.45 µM) | 3.12 µg/mL (≈ 9.45 µM) | 3.12 µg/mL (≈ 9.45 µM) | –
CN(C)c1ccc(CN2Sc3ccccc3[S+]2[O-])cc1 (centres unmarked) [Example 37, 2-(4-(dimethylamino)phenyl)methyl-1,3,2-benzodithiazole-1-oxide] | 12.5 µg/mL (≈ 41.1 µM) | 6.25 µg/mL (≈ 20.5 µM) | 1.56 µg/mL (≈ 5.12 µM) | 3.12 µg/mL (≈ 10.2 µM) | 6.25 µg/mL (≈ 20.5 µM) | 3.12 µg/mL (≈ 10.2 µM) | 3.12 µg/mL (≈ 10.2 µM) | 1.56 µg/mL (≈ 5.12 µM) | 6.25 µg/mL (≈ 20.5 µM) | 6.25 µg/mL (≈ 20.5 µM) | –
[O-][S+]1c2ccccc2SN1CCCc1ccccc1 (centres unmarked) [Example 39, 2-(3-phenylpropyl)-1,3,2-benzodithiazole-1-oxide] | 25 µg/mL (≈ 86.4 µM) | 6.25 µg/mL (≈ 21.6 µM) | 1.56 µg/mL (≈ 5.39 µM) | 3.12 µg/mL (≈ 10.8 µM) | 3.12 µg/mL (≈ 10.8 µM) | 12.5 µg/mL (≈ 43.2 µM) | 1.56 µg/mL (≈ 5.39 µM) | 1.56 µg/mL (≈ 5.39 µM) | 3.12 µg/mL (≈ 10.8 µM) | 3.12 µg/mL (≈ 10.8 µM) | –
CC(=O)N1CCN(c2ccc(OCC3COC(Cn4ccnc4)(c4ccc(Cl)cc4Cl)O3)cc2)CC1 (centres unmarked) [Ketoconazole] | – | – | – | – | – | – | – | – | – | – | inhibition of testosterone biosynthesis [10]: inhibitors of the biosynthesis of testosterone; oral activity ([4]; po): orally active; absorption into the cerebrospinal fluid [4]: poorly absorbed; hepatotoxicity [5]: hepatotoxins; fungistatic/fungicidal action (fungi): fungistatic and not fungicidal
